Earlier results, collected in US10722577B2, “Methods for treating GI syndrome and graft versus host disease” (Sloan Kettering Institute for Cancer Research, priority 2012, dated 2020).

Tested on: in vitro models of GvHD
Conditions: previous work, U.S. Ser. No. 12/599,280; cited from earlier work

C[C@@H]1[C@H](O)[C@@H](C)/C=C/C=C/CC/C=C/C=C/C=C/C=C/C(O[C@H]2O[C@H](C)[C@@H](O)[C@H](N)[C@@H]2O)CC2O[C@](O)(CC(O)C(O)CCC(O)CC(O)CC(O)CC(=O)O[C@H]1C)CC(O)C2C(=O)O (stereo partly shown) [nystatin]
apoptosis in in vitro models of GvHD: beneficial effects in reducing apoptosis
